{"source": "patent US10507213B2", "about": "“Method for treating cancer using a selenourea-coordinated gold(I)-carbene complex” (King Fahd University of Petroleum and Minerals, priority 2017, dated 2019)", "key": {"[1]": {"test_system": "MCF7 (breast cancer cells)", "experiment": "in vitro cytotoxicity, MTT assay, MCF7", "format": "cell-based, human", "details": "72 h incubation, three independent experiments, read-out: IC50 values against MCF7 cancer cell line", "method": "(§1) The complexes, [Au(IPr)Cl] and [Au(IPr)(Seu)]PF6 (1) were tested for their in vitro cytotoxic effects against human cell lines; MCF7 (breast cancer), HCI15 (colon cancer) and A549 (lung carcinoma) as reported previously. See M. Altaf, M. Monim-ul-Mehboob, A. A. A. Seliman, A. A. Tsai), V. Dhuna, G. Bhatia, K. Dhuna, Synthesis, X-ray Structures, Spectroscopic Analysis and Anticancer Activity of Novel Gold(I) Carbene Complexes, J. Organomet. Chem, 765 (2014) 68-79, incorporated herein by reference in its entirety. The cells were seeded at the concentration of 3×10^3 cells/well in 100 μL of DMEM containing 10% fetal bovine serum (FBS) in a 96-well tissue culture plate and incubated for 72 h at 37° C., 5% CO2 and 90% relative humidity in a CO2 incubator. After that 100 μL of 100, 50, 25 and 12.5 μM solutions of cisplatin and gold(I) complexes prepared in DMEM were added to the cells and the cultures were incubated for 72 h. The medium in the wells was cast off and 100 μL of DMEM containing MTT (0.5 mg/ml) was added to the wells, with subsequent incubation in the CO2 incubator at 37° C. in the dark for 4 h. After incubation, purple-colored formazan produced by the cells appeared as dark crystals in the bottom of the wells. The culture medium was carefully removed from each well to prevent disruption of the monolayer and 100 μL of dimethylsulfoxide (DMSO) was added to each well. The solution in the wells was thoroughly mixed to dissolve the formazan crystals which produce a purple solution. The absorbance of the 96 well-plates was measured at 570 nm with LabSystems Multiskan EX-ELISA reader against a reagent blank. The experimental results are calculated as the micromolar concentration of 50% cell growth inhibition (IC50) of each drug. The MTT assay was carried out in three independent experiments for each analysis. […]"}, "[2]": {"test_system": "HCT15 (colon cancer cells)", "experiment": "in vitro cytotoxicity, MTT assay, HCT15", "format": "cell-based, human", "details": "72 h incubation, three independent experiments, read-out: IC50 values against HCT15 cancer cell line", "method": "as §1"}, "[3]": {"test_system": "A549 (lung carcinoma)", "experiment": "in vitro cytotoxicity, MTT assay, A549", "format": "cell-based, human", "details": "72 h incubation, three independent experiments, read-out: IC50 values against A549 cancer cell line", "method": "The complexes, [Au(IPr)Cl] and [Au(IPr)(Seu)]PF6 (1) were tested for their in vitro cytotoxic effects against human cell lines; MCF7 (breast cancer), HCI15 (colon cancer) and A549 (lung carcinoma) as reported previously. See M. Altaf, M. Monim-ul-Mehboob, A. A. A. Seliman, A. A. Tsai), V. Dhuna, G. Bhatia, K. Dhuna, Synthesis, X-ray Structures, Spectroscopic Analysis and Anticancer Activity of Novel Gold(I) Carbene Complexes, J. Organomet. Chem, 765 (2014) 68-79, incorporated herein by reference in its entirety. The cells were seeded at the concentration of 3×10^3 cells/well in 100 μL of DMEM containing 10% fetal bovine serum (FBS) in a 96-well tissue culture plate and incubated for 72 h at 37° C., 5% CO2 and 90% relative humidity in a CO2 incubator. […] The medium in the wells was cast off and 100 μL of DMEM containing MTT (0.5 mg/ml) was added to the wells, with subsequent incubation in the CO2 incubator at 37° C. in the dark for 4 h. After incubation, purple-colored formazan produced by the cells appeared as dark crystals in the bottom of the wells. The culture medium was carefully removed from each well to prevent disruption of the monolayer and 100 μL of dimethylsulfoxide (DMSO) was added to each well. The solution in the wells was thoroughly mixed to dissolve the formazan crystals which produce a purple solution. The absorbance of the 96 well-plates was measured at 570 nm with LabSystems Multiskan EX-ELISA reader against a reagent blank. The experimental results are calculated as the micromolar concentration of 50% cell growth inhibition (IC50) of each drug. The MTT assay was carried out in three independent experiments for each analysis.\nThe complexes, [Au(Ipr)Cl] and [Au(Ipr)(Seu)]PF6 or Complex (I), as well as cisplatin (standard anticancer drug) were tested for in vitro cytotoxicity against three human cancer cell lines; A549 (lung carcinoma), HCT15 (colon cancer cells) and MCF7 (breast cancer cells) using MTT assay.\nThe IC50 values (as μM) obtained from the plot of the concentration of compounds against the percentage of cell viability are given in Table 4. […]"}, "[4]": {"experiment": "solubility in phosphate buffer estimated from SWSV", "format": "physicochemical", "details": "0.1 M phosphate buffer (pH 7.0); estimation based on the highest soluble concentration", "method": "(§2) Electrochemical (Square wave stripping voltammetry, SWSV) measurements were performed on a CH Instrument (CHI 1232A) potentiostat. Electrochemical cell comprises of a platinum wire as a counter electrode, an Ag/AgCl saturated with KCl as reference electrode and glassy carbon electrode (GCE; 3.0 mm diameter, Model CHI104, CH Instruments, Austin, Tex.) as a working electrode inserted into 2.0 mL glass cell containing phosphate buffer solution, pH 7.0 as supporting electrolyte. 0.1 M buffer solution was prepared by mixing, appropriate volumes of 0.2 M monosodium phosphate and disodium phosphate prepared with distilled water. Stock solutions of the complex prepared with methanol, while L-tyrosine and L-tryptophan were prepared by dissolving in 0.10 M NaOH in ratio 1:4 with distilled water. GCE was polished with 0.05 μm alumina, rinsed with distilled water prior to every SWSV measurements at room temperature in a quiescent condition at potential windows between −0.20 V and 1.20 V for the stability and 0.00 V and 1.20 V for the interaction studies. Working conditions are; pulse width (increment) 4 mV, pulse height (amplitude) 25 mV and frequency, 15 Hz.\n(§3) The stability and electrochemical behavior of complex 1 were examined by its electroactive properties in phosphate buffer solution of pH 7.0 using SWSV technique (Square wave stripping voltammetry). […]"}, "[5]": {"experiment": "stability in polar solvents", "format": "physicochemical", "details": "water, methanol, ethanol, acetone; deuterated solvents such as dichloromethane"}, "[6]": {"experiment": "stability by square wave stripping voltammetry (SWSV) in phosphate buffer", "format": "physicochemical", "details": "phosphate buffer pH 7.0, SWSV, 50, 75 and 100 μM", "method": "as §2, §3"}}}
{"molecule": "N.N.[Cl][Pt][Cl]", "note": "[Cisplatin]", "values": [{"measurement": "IC50", "setting": "[1]", "result": "23 ± 4", "unit": "µM"}, {"measurement": "IC50", "setting": "[2]", "result": "32 ± 2", "unit": "µM"}, {"measurement": "IC50", "setting": "[3]", "result": "42 ± 2", "unit": "µM"}]}
{"molecule": "CC(C)c1cccc(C(C)C)c1-n1cc[n+](-c2c(C(C)C)cccc2C(C)C)[c]1[Au-][Se+]=C(N)N.F[P-](F)(F)(F)(F)F", "note": "[Complex 1, [Au(IPr)(Seu)]PF6]", "values": [{"measurement": "solubility in phosphate buffer", "setting": "[4]", "result": "≥ 8.53", "unit": "mg/100 ml"}, {"measurement": "IC50", "setting": "[1]", "result": "75 ± 3", "unit": "µM"}, {"measurement": "stability in polar solvents", "setting": "[5]", "result": "stable in polar solvents such as water, methanol, ethanol and acetone"}, {"measurement": "stability in aqueous solution", "setting": "[6]", "result": "stable in aqueous solution"}, {"measurement": "IC50", "setting": "[2]", "result": "76 ± 2", "unit": "µM"}, {"measurement": "IC50", "setting": "[3]", "result": "82 ± 1", "unit": "µM"}]}
{"molecule": "chlorido[1,3-Bis(2,6-di isopropylphenyl)imidazol-2-ylidene]gold(I) [[Au(Ipr)Cl]]", "values": [{"measurement": "IC50", "setting": "[1]", "result": "110 ± 2", "unit": "µM"}, {"measurement": "IC50", "setting": "[2]", "result": "122 ± 1", "unit": "µM"}, {"measurement": "IC50", "setting": "[3]", "result": "180 ± 2", "unit": "µM"}]}
